Data taken from paper PMC11396751, “Design, Synthesis, and Anticancer Activity of Novel Enmein-Type Diterpenoid Derivatives Targeting the PI3K/Akt/mTOR Signaling Pathway” (Molecules, 2024).

Columns and labels:
A549 cells [1] = assay: MTT anti-proliferative assay, A549; format: cell-based, human
Method: (§1) A series of novel enmein-type diterpenoid derivatives, 5a–m, were synthesized by introducing a side chain containing a carbamate moiety at the C-6 position of compound 4. The anticancer activities of 5a–m were tested against three human cancer cell lines and one human normal cell line by MTT assay.
(§2) Human non-small cell lung cancer cell lines (A549), human liver cancer cell lines (HepG2), human breast cancer cell lines (MCF-7), and human normal cell lines (L-02) were purchased from the cell bank of the Chinese Academy of Sciences. All cells were placed in RPMI-1640 medium (added 10% fetal bovine serum, […]) and cultured in an aseptic environment with 5% CO2 at 37 °C.
(§3) All derivatives were evaluated for their anti-proliferative activities against three cancer cell lines and one normal cell line by MTT assay. The cells in the logarithmic growth phase were inoculated into 96-well plates (3 × 10^3 cells/well) and incubated for 48 h in a sterile environment with 5% CO2 at 37 °C to make them attach via cell adhesion; then, the cells were co-incubated with target compounds for 48 h. After that, MTT solution (10 µL/well) was added to the cell culture medium to continue incubation for 4 h, following which the medium was replaced with DMSO (150 µL/well). The absorbance values at 490 nm were determined using an enzyme meter (Safire 2, Tecan, Männedorf, Switzerland) and further converted to half-inhibitory concentration values of these compounds.

L-02 cells = assay: MTT anti-proliferative assay, normal L-02 cells; format: cell-based; conditions: means ± SD of three experiments
Method: as §1, §2, §3

A549 cells [2] = assay: Apoptosis rate, Annexin V-FITC/PI, flow cytometry; format: cell-based, human; conditions: 48 h
Method: To further confirm the capacity of 7h to induce apoptosis in cancer cells, A549 cells were treated with 7h, detected using Annexin V-FITC/PI staining, and the apoptosis rate was detected by flow cytometry.
A549 cells were inoculated into 6-well plates and attached via cell adhesion. Then, gradient concentrations (0, 2, 4, and 8 µM) of 7h was added and co-incubated for 48 h. The cells were gathered and prepared as cell suspensions according to the method described in Section 4.2.3. The cell suspension was treated with Annexin V-FITC/PI staining solution, and the data were gathered using a flow cytometer (FACS Calibur, BD, Milpitas, CA, USA) and analyzed using Flow Jo software. Three attempts were performed for each treatment to eliminate experimental bias.

A549 cells [3] = assay: ROS content, H2DCFDA staining; format: cell-based, human; conditions: A549, 2, 4 and 8 µM, 48 h, flow cytometry
Method: Reactive oxygen species (ROS) are secondary metabolites of cells and are closely linked to the regulation of multiple biological activities. Elevated intracellular ROS levels are thought to be a hallmark of apoptosis. To determine whether 7h could affect the ROS content in cancer cells, the A549 cells were treated with different concentrations (0, 2, 4, and 8 µM) of 7h and then stained with H2DCFDA.
Flow cytometry was used to detect changes in intracellular reactive oxygen species content, and the results are shown in Figure 5b,c.
A549 cells were inoculated into 24-well plates and attached via cell adhesion. Then, gradient concentrations (0, 2, 4, and 8 µM) of 7h were added and the cells were co-incubated for 48 h. The cells were cleaned with ice-cold PBS, stained with H2DCFDA, mixed, and incubated in cells for 20 min in darkness at 25 °C. The apoptosis morphology of the cells in each group was observed and photographed using a laser confocal microscope (LSM710, Zeiss, Oberkochen, Germany).
A549 cells were inoculated into 6-well plates and attached via cell adhesion. Then, gradient concentrations (0, 2, 4, and 8 µM) of 7h were added and the cells were co-incubated for 48 h. […] The experimental data were gathered using flow cytometry (FACS Calibur, BD, Milpitas, CA, USA) and analyzed using Flow Jo software. […]

PI3K/Akt/mTOR pathway = assay: Western blot analysis in A549 cells; format: cell-based, human; conditions: A549, 2, 4 and 8 µM, 48 h
Method: The PI3K/Akt/mTOR pathway is a critical intracellular signaling pathway during cancer development that regulates cellular processes such as proliferation, differentiation, apoptosis, and autophagy. Inhibiting the aberrant activation of the PI3K/Akt/mTOR signaling pathway is envisaged as a promising anticancer strategy. Based on KEGG analysis and researching the literature, the PI3K/Akt/mTOR signaling pathway is predicted to be one of the major pathways for 7h to exert its anticancer effects. Therefore, a western blot assay was performed to determine the expression of the main proteins, PI3K, p-PI3K, Akt, p-Akt, mTOR, and p-mTOR, to examine whether the anticancer ability of 7h against A549 cells is related to its modulation of the PI3K/Akt/mTOR pathway.
Western blot was used to determine the effect of 7h against the related protein expression in A549 cells. A549 cells were inoculated in 6-well plates and treated with a grdient concentrations (0, 2, 4, and 8 µM) of 7h for 48 h. The cells were collected, lysed in RIPA buffer, and heated at 100 °C for 10 min. The samples were processed via 10% sodium dodecyl sulfate-polyacrylamide gel electrophoresis (10% SDS-PAGE) and then transferred to a poly vinylidene difluoride (PVDE) membrane. […]

[4] = A549, highest concentration (8 µM per Figure 4b)

For `C=C1C(=O)C23C(=O)OC45CCC(C)(C)C6C(OC(=O)CCC(=O)N7CCC(c8noc9cc(F)ccc89)CC7)OCC64C2CCC1C3O5` (single isomer, unassigned; ent-6) [Compound 7h, ent-6β,14α-Dihydroxy-(1,7–1,14)-epoxy-7,15-dioxo-6,20-hemiketal-6,7-seco-16-kaurene-6β-yl 4-(4-(6-fluorobenzo[d]isoxazol-3-yl)piperidin-1-yl)-4-oxobutanoate], the “fold better than parental compound 4 (A549 IC50)” value (A549 cells [1]; A549 cells) was 11.03 fold, the IC50 (A549 cells [1]; Homo sapiens, A549, MTT, 48 h, means ± SD of three experiments) was 2.16 ± 1.4 µM and the IC50 (L-02 cells; Homo sapiens, L02, 48 h) was over 100 µM. The IC50 (L-02 cells; human normal cells, 48 h) was over 50 µM, the late apoptosis (A549 cells [2]; [4]) was 41.8% and the “percentage of total apoptosis” value (A549 cells [2]; [4]) was 58.00%. For the same molecule, the “percentage of total apoptosis” value (A549 cells [2]; A549, lowest concentration (2 µM per Figure 4b)) was 5.38%, the “intracellular ROS content” value (A549 cells [3]) was “increased significantly in a dose-dependent manner” and the “Akt protein phosphorylation expression” value (PI3K/Akt/mTOR pathway) was “showed an effect on Akt protein phosphorylation expression”. The “expression levels of p-PI3K and p-mTOR” value (PI3K/Akt/mTOR pathway; dose-dependent, vs blank control) was “effectively reduce”.
